According to patent US9815788B2, “Anti-angiogenic compounds” (University College Dublin National University of Ireland, …, priority 2012, dated 2017):

Tests used:
[1] = test system: zebrafish hyaloid vasculature; assay: Quantification of primary hyaloid vasculature branch number in Tg(fli1:EGFP) zebrafish; type: in vivo; conditions: for inhibition of developmental angiogenesis of the hyaloid vasculature (number of primary hyaloid vessels): typically 10 μM or 5 μM, from 24 hpf, vs DMSO control; for dose-dependent inhibition of development of hyaloid vessels: decreasing doses 20, 10, 7.5, 5, 2.5, 1 and/or 0.5 μM
Description: (§1) All experiments were carried out under ethical approval granted by the UCD animal research ethics committee. Tg(fli1:EGFP) zebrafish were maintained according to standard procedures on a 14 hr light/10 hr dark cycle at 28° C. Embryos were obtained by natural spawning and developmental stages established by time and morphological criteria. […] Larvae were euthanised, and fixed in 4% PFA at 4° C. overnight before analysis.
Overall patterning of the vasculature (fin, gut and intersegmental vessels) was examined for abnormalities. Right lenses were dissected from the larvae and transferred to depression slides for observation under epi-fluorescence in the Olympus SZX16. Patterning of the hyaloid vessels on the treated larval lenses was compared to DMSO controls and the archetypal pattern previously described (Alvarez et al., 2007; Alvarez et al., 2009).
as §1, with “analysis. Lenses were dissected from the larvae and transferred to depression slides for observation under epi-fluorescence in the Olympus SZX16. Patterning of the hyaloid vessels on the treated larval lenses was compared to DMSO controls and the archetypal pattern previously described (Alvarez et al., 2007; Alvarez et al., 2009).” for “analysis.”

[2] = test system: zebrafish intersegmental vessels; assay: Quantification of intersegmental vessel number in zebrafish; type: in vivo
Description: […] Larvae were manually dechorionated, euthanised, and fixed in 4% PFA at 4° C. overnight before analysis. The larvae were then washed with PBS and transferred to depression slides for observation under epi-fluorescence in an Olympus SZX16 fluorescent microscope. The number of intersegmental vessels was counted and the average number was graphed for each drug.
Larvae were manually dechorionated, euthanised, and fixed in 4% PFA at 4° C. overnight before analysis. The larvae were then washed with PBS and transferred to depression slides for observation under epi-fluorescence in an Olympus SZX16 fluorescent microscope. The number of intersegmental vessels was counted and the average number was graphed for each drug.

| Compound | inhibition of developmental angiogenesis of the hyaloid vasculature (number of primary hyaloid vessels) [1] | inhibition of developmental angiogenesis of intersegmental vessels (number of intersegmental vessels) ([2]; 10 μM, from 6 hpf) | other results |
| --- | --- | --- | --- |
| COc1ccc(Br)cc1C=Cc1ccc2ccccc2n1 [Compound 11B-074, 2-[2-(5-bromo-2-methoxyphenyl)vinyl]quinoline] | inhibit developmental angiogenesis of the zebrafish hyaloid vasculature in a statistically significant manner | – | – |
| CCN1CCc2cc(OC)c(OC)cc2C1c1ccc2c(c1)OCO2 (racemic) [Compound 11F-CC10, (rac)-1-Benzo[1,3]dioxol-5-yl-6,7-dimethoxy-2-ethyl-1,2,3,4-tetrahydro-isoquinoline] | inhibit developmental angiogenesis of the zebrafish hyaloid vasculature in a statistically significant manner | – | – |
| COc1ccc(I)cc1C=Cc1ccc2ccccc2n1 [Compound 11B-412, 2-[2-(5-iodo-2-methoxyphenyl)vinyl]quinoline] | – | inhibit developmental angiogenesis of zebrafish intersegmental vessels in a statistically significant manner | – |
| Cl.Oc1ccc(C=Cc2ccc3ccccc3n2)cc1 [Compound 11B_CC3_HCl, 4-(2-Quinolin-2-yl-vinyl)-phenol HCl salt] | – | inhibit developmental angiogenesis of zebrafish intersegmental vessels in a statistically significant manner | – |
| CCOc1ccccc1C=Cc1ccc2cccc(O)c2n1 [Compound 11B-739, 2-[2-(2-ethoxyphenyl)vinyl]-8-quinolinol] | inhibit developmental angiogenesis of the zebrafish hyaloid vasculature in a statistically significant manner | – | – |
| Oc1cccc(C=Cc2ccc3ccccc3n2)c1 [Compound 11B_CC2, 3-(2-Quinolin-2-yl-vinyl)-phenol] | inhibit developmental angiogenesis of the zebrafish hyaloid vasculature in a statistically significant manner | inhibit developmental angiogenesis of zebrafish intersegmental vessels in a statistically significant manner | – |
| Cl.Oc1ccccc1CCc1ccc2ccccc2n1 [Compound 11B_CC4_HCl, 2-(2-Quinolin-2-yl-ethyl)-phenol HCl salt] | inhibit developmental angiogenesis of the zebrafish hyaloid vasculature in a statistically significant manner | inhibit developmental angiogenesis of zebrafish intersegmental vessels in a statistically significant manner | dose-dependent inhibition of development of hyaloid vessels ([1]; HCl salt): inhibit developmental angiogenesis of zebrafish hyaloid vasculature in a dose-dependent statistically significant manner; dose-dependent inhibition of development of hyaloid vessels ([1]; listed as 11B-CC4 HCl, HCl salt): dose-dependent effect |
| Oc1cccc(C#Cc2ccc3ccccc3n2)c1 [Compound 11B_CC15, 3-Quinolin-2-yl-ylethynyl-phenol] | – | inhibit developmental angiogenesis of zebrafish intersegmental vessels in a statistically significant manner | – |
| Cl.Oc1cccc(C#Cc2ccc3ccccc3n2)c1 [Compound 11B_CC15_HCl, 3-Quinolin-2-yl-ylethynyl-phenol HCl salt] | – | inhibit developmental angiogenesis of zebrafish intersegmental vessels in a statistically significant manner | – |
| Oc1ccccc1/C=C\c1ccc2ccccc2n1 [Compound 11B_Z, (Z)-2-(2-(Quinolin-2-yl)vinyl) phenol] | inhibit developmental angiogenesis of the zebrafish hyaloid vasculature in a statistically significant manner | inhibit developmental angiogenesis of zebrafish intersegmental vessels in a statistically significant manner | – |
| Cc1ccc2nc(/C=C/c3cccc(O)c3)ccc2c1 [Compound 11B-814, 3-[(E)-2-(6-Methyl-2-quinolinyl)vinyl]phenol] | inhibit developmental angiogenesis of the zebrafish hyaloid vasculature in a statistically significant manner | – | dose-dependent inhibition of development of hyaloid vessels [1]: dose-dependent effect |
| Oc1cccc2ccc(C=Cc3ccccc3Cl)nc12 [Compound 11B-736, 2-[2-(2-chlorophenyl)vinyl]-8-quinolinol] | – | inhibit developmental angiogenesis of zebrafish intersegmental vessels in a statistically significant manner | – |
| CCOc1cc2c(cc1OCC)C(c1cc3c(cc1Br)OCO3)NCC2 (stereo not shown) [Compound 11F-001, 1-(6-bromo-1,3-benzodioxol-5-yl)-6,7-diethoxy-1,2,3,4-tetrahydroisoquinoline] | inhibit developmental angiogenesis of the zebrafish hyaloid vasculature in a statistically significant manner | – | – |
| Oc1cccc(CCc2ccc3ccccc3n2)c1 [Compound 11B_CC5, 3-(2-Quinolin-2-yl-ethyl)-phenol] | inhibit developmental angiogenesis of the zebrafish hyaloid vasculature in a statistically significant manner | – | – |
| Cl.Oc1cccc(C=Cc2ccc3ccccc3n2)c1 [Compound 11B_CC2_HCl, 3-(2-Quinolin-2-yl-vinyl)-phenol HCl salt] | inhibit developmental angiogenesis of the zebrafish hyaloid vasculature in a statistically significant manner | inhibit developmental angiogenesis of zebrafish intersegmental vessels in a statistically significant manner | – |
| Oc1ccc(O)c(/C=C/c2ccc3ccccc3n2)c1 [Compound 11B_CC12, (E)-2-(2-Quinolin-2-yl-vinyl)--benzene-1,4-diol] | – | – | inhibition of developmental angiogenesis of intersegmental vessels (number of intersegmental vessels) ([2]; 11B_CC12 tested at 2.5 μM, n=2): inhibit developmental angiogenesis of zebrafish intersegmental vessels in a statistically significant manner |
| C/C(=C\c1ccccc1O)c1ccc2ccccc2n1 [Compound 11B_CC11, (E)-2-(2-Quinolin-2-yl-propenyl)-phenol] | inhibit developmental angiogenesis of the zebrafish hyaloid vasculature in a statistically significant manner | inhibit developmental angiogenesis of zebrafish intersegmental vessels in a statistically significant manner | – |
| Cc1cccc(/C=C/c2ccc3cccc(O)c3n2)c1O [Compound 11B-438, 2-[(E)-2-(2-Hydroxy-3-methylphenyl)vinyl]-8-quinolinol] | inhibit developmental angiogenesis of the zebrafish hyaloid vasculature in a statistically significant manner | inhibit developmental angiogenesis of zebrafish intersegmental vessels in a statistically significant manner | – |
| Oc1ccc(-c2ccc3c(c2)OCO3)cc1CN1CCc2ccccc2C1 [Compound 11F-978, 4-(1,3-benzodioxol-5-yl)-2-(3,4-dihydro-2(1H)-isoquinolinylmethyl)phenol] | inhibit developmental angiogenesis of the zebrafish hyaloid vasculature in a statistically significant manner | – | – |
| COc1cc(CN2CCc3ccccc3C2)cc2c1OCO2 [Compound 11F-708, 2-[(7-methoxy-1,3-benzodioxol-5-yl)methyl]-1,2,3,4-tetrahydroisoquinoline] | inhibit developmental angiogenesis of the zebrafish hyaloid vasculature in a statistically significant manner | – | – |
| Oc1ccccc1/C=C/c1cc(O)c2ccccc2n1 [Compound 11B-470, 2-[(E)-2-(2-Hydroxyphenyl)vinyl]-4-quinolinol] | – | inhibit developmental angiogenesis of zebrafish intersegmental vessels in a statistically significant manner | – |
| Cl.Oc1cccc(CCc2ccc3ccccc3n2)c1 [Compound 11B_CC5_HCl, 3-(2-Quinolin-2-yl-ethyl)-phenol HCl salt] | inhibit developmental angiogenesis of the zebrafish hyaloid vasculature in a statistically significant manner | inhibit developmental angiogenesis of zebrafish intersegmental vessels in a statistically significant manner | dose-dependent inhibition of development of hyaloid vessels ([1]; HCl salt): inhibit developmental angiogenesis of zebrafish hyaloid vasculature in a dose-dependent statistically significant manner; dose-dependent inhibition of development of hyaloid vessels ([1]; listed as 11B-CC5 HCl, HCl salt): dose-dependent effect |
